Results as given in patent US20260285850A1, “SUBSTITUTED OXAZOLIDINONES AND IMIDAZOLINONES AS HERBICIDES” (FMC CORPORATION, priority 2023, published 2026).

How the values were obtained:
Format in all cases: in vivo
[1] = system: horseweed (Erigeron canadensis); test: Test A postemergence application, visual injury rating 0-100; conditions: 10 days
Summary of the method: (§1)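 Greenhouse test: loam/sand pots received a surfactant-containing formulation, as a preemergence directed soil spray or a postemergence spray on young plants. Injury was judged visually at day 10 relative to untreated controls.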

[2] = system: blackgrass (Alopecurus myosuroides); test: as above; conditions: 10 days
Summary of the method: as §1

[3] = system: kochia (Bassia scoparia); test: as above; conditions: 10 days
Summary of the method: as §1

[4] = system: soybean (Glycine max); test: as above; conditions: 10 days
Summary of the method: as §1

[5] = system: ragweed (common ragweed, Ambrosia artemisiifolia); test: as above; conditions: 10 days
Summary of the method: as §1

[6] = system: oat, wild (wild oat, Avena fatua); test: as above; conditions: 10 days
Summary of the method: as §1

[7] = system: ryegrass, Italian (italian ryegrass, Lolium multiflorum); test: as above; conditions: 10 days
Summary of the method: as §1

[8] = system: green foxtail (Setaria viridis); test: as above; conditions: 10 days
Summary of the method: as §1

[9] = system: galium (catchweed bedstraw, Galium aparine); test: as above; conditions: 10 days
Summary of the method: as §1

[10] = system: wheat (Triticum aestivum); test: as above; conditions: 10 days
Summary of the method: as §1

[11] = system: palmer (palmer amaranth, palmer pigweed, Amaranthus palmeri); test: as above; conditions: 10 days
Summary of the method: as §1

[12] = system: barnyardgrass (Echinochloa crus-galli); test: as above; conditions: 10 days
Summary of the method: as §1

[13] = system: corn (Zea mays); test: as above; conditions: 10 days
Summary of the method: as §1

[14] = system: rice (Oryza sativa); test: Test B flooded paddy test, visual plant response rating 0-100; conditions: 250 g ai/ha, Flood, applied to paddy water, evaluated after 13 days
Summary of the method: (§2)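 Paddy-water application: test compounds went directly into water flooded 3 cm above the soil surface, with plants at 2 leaves. After a 13-day greenhouse period, responses were judged by eye relative to controls; a dash marks an untested entry.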

[15] = system: ducksalad (Heteranthera limosa); test: as above; conditions: 250 g ai/ha, Flood, applied to paddy water, evaluated after 13 days
Summary of the method: as §2

[16] = system: sedge, umbrella (small-flower umbrella sedge, Cyperus difformis); test: as above; conditions: 250 g ai/ha, Flood, applied to paddy water, evaluated after 13 days
Summary of the method: as §2

[17] = system: barnyardgrass (Echinochloa crusgalli); test: as above; conditions: 250 g ai/ha, Flood, applied to paddy water, evaluated after 13 days
Summary of the method: as §2

[18] = system: blackgrass (Alopecurus myosuroides); test: Test A preemergence soil spray, visual injury rating 0-100; conditions: 10 days, 0 = no effect, 100 = complete control
Summary of the method: as §1

[19] = system: kochia (Bassia scoparia); test: as above; conditions: 10 days, 0 = no effect, 100 = complete control
Summary of the method: as §1

[20] = system: soybean (Glycine max); test: as above; conditions: 10 days, 0 = no effect, 100 = complete control
Summary of the method: as §1

[21] = system: ragweed (common ragweed, Ambrosia artemisiifolia); test: as above; conditions: 10 days, 0 = no effect, 100 = complete control
Summary of the method: as §1

[22] = system: oat, wild (wild oat, Avena fatua); test: as above; conditions: 10 days, 0 = no effect, 100 = complete control
Summary of the method: as §1

[23] = system: ryegrass, Italian (italian ryegrass, Lolium multiflorum); test: as above; conditions: 10 days, 0 = no effect, 100 = complete control
Summary of the method: as §1

[24] = system: green foxtail (Setaria viridis); test: as above; conditions: 10 days, 0 = no effect, 100 = complete control
Summary of the method: as §1

[25] = system: wheat (Triticum aestivum); test: as above; conditions: 10 days, 0 = no effect, 100 = complete control
Summary of the method: as §1

[26] = system: palmer (palmer amaranth, palmer pigweed, Amaranthus palmeri); test: as above; conditions: 10 days, 0 = no effect, 100 = complete control
Summary of the method: as §1

[27] = system: barnyardgrass (Echinochloa crus-galli); test: as above; conditions: 10 days, 0 = no effect, 100 = complete control
Summary of the method: as §1

[28] = system: corn (Zea mays); test: as above; conditions: 10 days, 0 = no effect, 100 = complete control
Summary of the method: as §1

[29] = 31 g ai/ha, postemergence, 0 = no effect, 100 = complete control
[30] = Postemergence, 125 g ai/ha, 0 is no effect, 100 is complete control

## COC(=O)C1=CCC(NC(=O)C2(C)CN(c3cc(F)cc(F)c3)C(=O)O2)C1 (single isomer, unassigned) [Compound 20]
[1]; [29]
  Horseweed plant response rating (0-100): 0
[1]; [30]
  Horseweed plant response rating (0 to 100 scale): 0
[2]; [29]
  Blackgrass plant response rating (0-100): 0
[2]; [30]
  Blackgrass plant response rating (0 to 100 scale): 60
[3]; [29]
  Kochia plant response rating (0-100): 0
[3]; [30]
  Kochia plant response rating (0 to 100 scale): 50
[4]; [29]
  Soybean plant response rating (0-100): 50
[4]; [30]
  Soybean plant response rating (0 to 100 scale): 90
[5]; [29]
  Ragweed plant response rating (0-100): 0
[5]; [30]
  Ragweed plant response rating (0 to 100 scale): 30
[6]; [29]
  Oat, Wild plant response rating (0-100): 20
[6]; [30]
  Oat, Wild plant response rating (0 to 100 scale): 60
[7]; [29]
  Ryegrass, Italian plant response rating (0-100): 0
[7]; [30]
  Ryegrass, Italian plant response rating (0 to 100 scale): 80
[8]; [29]
  Foxtail, Green plant response rating (0-100): 20
[8]; [30]
  Foxtail, Green plant response rating (0 to 100 scale): 80
[9]; [29]
  Galium plant response rating (0-100): 20
[9]; [30]
  Galium plant response rating (0 to 100 scale): 80
[10]; [29]
  Wheat plant response rating (0-100): 0
[10]; [30]
  Wheat plant response rating (0 to 100 scale): 80
[11]; [29]
  Amaranth, Palmer plant response rating (0-100): 0
[11]; [30]
  Amaranth, Palmer / Pigweed, Palmer plant response rating (0 to 100 scale): 30
[12]; [29]
  Barnyardgrass plant response rating (0-100): 0
[12]; [30]
  Barnyardgrass plant response rating (0 to 100 scale): 90
[13]; [29]
  Corn plant response rating (0-100): 40
[13]; [30]
  Corn plant response rating (0 to 100 scale): 100
[14]
  Plant response rating, Rice (0 to 100 scale, 0 is no effect and 100 is complete control): 0
[15]
  Plant response rating, Ducksalad (0 to 100 scale, 0 is no effect and 100 is complete control): 0
[16]
  Plant response rating, Sedge, Umbrella (0 to 100 scale, 0 is no effect and 100 is complete control): 0
[17]
  Plant response rating, Barnyardgrass (0 to 100 scale, 0 is no effect and 100 is complete control): 0
[18]; 31 g ai/ha
  Blackgrass plant response rating (0-100): 0
[18]; 125 g ai/ha
  Blackgrass plant response rating (0 to 100 scale): 0
[19]; 31 g ai/ha
  Kochia plant response rating (0-100): 0
[19]; 125 g ai/ha
  Kochia plant response rating (0 to 100 scale): 0
[20]; 31 g ai/ha
  Soybean plant response rating (0-100): 20
[20]; 125 g ai/ha
  Soybean plant response rating (0 to 100 scale): 60
[21]; 31 g ai/ha
  Ragweed plant response rating (0-100): 30
[21]; 125 g ai/ha
  Ragweed plant response rating (0 to 100 scale): 0
[22]; 31 g ai/ha
  Oat, Wild plant response rating (0-100): 0
[22]; 125 g ai/ha
  Oat, Wild plant response rating (0 to 100 scale): 0
[23]; 31 g ai/ha
  Ryegrass, Italian plant response rating (0-100): 0
[23]; 125 g ai/ha
  Ryegrass, Italian plant response rating (0 to 100 scale): 20
[24]; 31 g ai/ha
  Foxtail, Green plant response rating (0-100): 0
[24]; 125 g ai/ha
  Foxtail, Green plant response rating (0 to 100 scale): 0
[25]; 31 g ai/ha
  Wheat plant response rating (0-100): 0
[25]; 125 g ai/ha
  Wheat plant response rating (0 to 100 scale): 20
[26]; 31 g ai/ha
  Amaranth, Palmer plant response rating (0-100): 0
[26]; 125 g ai/ha
  Amaranth, Palmer plant response rating (0 to 100 scale): 0
[27]; 31 g ai/ha
  Barnyardgrass plant response rating (0-100): 0
[27]; 125 g ai/ha
  Barnyardgrass plant response rating (0 to 100 scale): 0
[28]; 31 g ai/ha
  Corn plant response rating (0-100): 0
[28]; 125 g ai/ha
  Corn plant response rating (0 to 100 scale): 0
